Laboratory results from patent US7935680B2, “Methods for modulating the axonal growth of central nervous system neurons” (Children's Medical Center Corporation, priority 1997, dated 2011).
Entries after “also recorded” stand apart in the source; their conditions may differ.

Tests used:
Assay type in all cases: cell-based
[1] = test system: goldfish retinal ganglion cells; assay: Cell survival in goldfish retinal ganglion cell cultures (viable RGCs per field)
Description: Goldfish (Comet Variety, Mt. Parnell Fisheries, Mt. Parnell Pa.), 6-10 cm in length, were dark-adapted and their retinas dissected. Retinas were incubated with papain (20 μg/ml), activated with cysteine (2.8 mM) for 30 minutes at room temperature, then dissociated by gentle trituration. […] Low density cultures were achieved by plating c. 5×10^3 cells/well into poly L-lysine coated, 24-well culture dishes (Costar, Cambridge, Mass.). […] In brief, retinas from postnatal day 8 Sparague-Dawley rats were dissociated using papain activated with cysteine. Macrophages were removed by incubation with an anti-rat macrophage antibody (Accurate) followed by immunopanning with an anti-rabbit 1gG antibody. Ganglion cells were isolated by immunopanning with an anti-Thy-1 antibody, then dislodged with trypsin for use in low-density cultures. Rat retinal ganglion cells were maintained at 37° C. in a CO2 incubator using the same medium described above except for the presence of 30 mM bicarbonate.
In a typical experiment, samples were plated in quadruplicate in randomized positions of a 24-well plate and the code was concealed to ensure that growth was evaluated in a blinded fashion. Each experiment contained 4 wells of a negative control (media plus supplements only) and 4 wells of a positive control (a standardized AF-1 sample of known activity). Growth and survival were assessed after 6 days for all ganglion cells in 25 consecutive fields of each well using phase contrast microscopy at 400× magnification (c. 150 ganglion cells counted per well). […] After the completion of counting, the code was broken, the data tabulated, and means and standard errors were calculated for the 4 replicate wells of each sample using Cricket Graph (CA Associates, Islandia, N.Y.). Data were normalized by subtracting the growth in the negative controls (usually 4-5%) and dividing by the net growth in the positive controls. […] Group comparisons were based upon pairwise, 2-tailed Student's t-tests. Several independent experiments were performed for most samples, as noted in the figure legends. In some cases, cell viability was assessed with the dye 5,6-carboxyfluorescein diacetate. Cell survival is reported as the number of viable RGCs per high-powered field.

[2] = test system: goldfish retinal ganglion cells; assay: Axonal outgrowth from dissociated goldfish retinal ganglion cell cultures; settings: for EC50: goldfish RGCs, 6 days, estimated from dose-response curves; for outgrowth at higher concentrations: concentrations above those giving the maximal response; for axonal outgrowth activity: tested at concentrations between 1-100 μM
Description: Axogenesis factor-1 was obtained essentially as described in Schwalb et al., 1995, and Schwalb et al., Neuroscience, 72: 901-910, 1996, the contents of which are incorporated herein by reference). Optic nerves were dissected, cut into fragments 1 mm in length, and incubated in a ratio of 6 nerves in 3 ml of either L-15 media (Gibco BRL) or phosphate-buffered saline (Gibco BRL). After 3-4 hours, nerve fragments were removed by filtering through a 0.22 μm pore low protein-binding filter (Gelman). A low molecular weight fraction of the conditioned media was prepared by ultrafiltration, first with a molecular weight cut-off of 3 kDa (Amicon Centriprep-3), then with a cut-off of 1 kDa (Filtron). The filtrate was used as a positive control at 20-30% final concentration. […] Goldfish (Comet Variety, Mt. Parnell Fisheries, Mt. Parnell Pa.), 6-10 cm in length, were dark-adapted and their retinas dissected. Retinas were incubated with papain (20 μg/ml), activated with cysteine (2.8 mM) for 30 minutes at room temperature, then dissociated by gentle trituration. […] Neuroscience 15: 5514-5625, 1995, the contents of which are incorporated herein by reference). […] Cells were maintained at 21° C. in serum free, defined media containing insulin, selenium, transferrin, bovine serum albumin, catalase, superoxide dismutase, hormones, and vitamins in Eagle's L-15 media as described in Schwalb et al., 1995, the contents of which are incorporated herein by reference). Dissociated cultures of purified rat retinal ganglion cells were prepared by immunopanning as described in Barres et al., Neuron, 1: 791-803, 1988, the contents of which are incorporated herein by reference). In brief, retinas from postnatal day 8 Sparague-Dawley rats were dissociated using papain activated with cysteine. Macrophages were removed by incubation with an anti-rat macrophage antibody (Accurate) followed by immunopanning with an anti-rabbit 1gG antibody. Ganglion cells were isolated by immunopanning with an anti-Thy-1 antibody, then dislodged with trypsin for use in low-density cultures. Rat retinal ganglion cells were maintained at 37° C. in a CO2 incubator using the same medium described above except for the presence of 30 mM bicarbonate. In a typical experiment, samples were plated in quadruplicate in randomized positions of a 24-well plate and the code was concealed to ensure that growth was evaluated in a blinded fashion. Each experiment contained 4 wells of a negative control (media plus supplements only) and 4 wells of a positive control (a standardized AF-1 sample of known activity). […] After the completion of counting, the code was broken, the data tabulated, and means and standard errors were calculated for the 4 replicate wells of each sample using Cricket Graph (CA Associates, […].). […] Group comparisons were based upon pairwise, 2-tailed Student's t-tests. Several independent experiments were performed for most samples, as noted in the figure legends. […] Cell survival is reported as the number of viable RGCs per high-powered field.

[3] = test system: GAP-43; assay: GAP-43 immunohistochemistry in goldfish retinal ganglion cells; settings: immunostaining
Description: One hallmark of optic nerve regeneration in vivo is the enhanced expression of the membrane phosphoprotein GAP-43. To investigate whether this upregulation is induced by purines, immunohistochemistry was carried out using a polyclonal rabbit antiserum against recombinant […] GAP-43. Recombinant zebrafish GAP-43 was made by transforming E. coli with a cDNA isolated by Dr. Eva Reinhard, University of Basel, Switzerland (see Reinhard et al., Development, 120: 1757-1775, 1994, the contents of which are incorporated herein by reference) subcloned into the prokaryotic expression vector pTrcHisB (Invitrogen). The protein produced was purified by Ni^2+-NTA-affinity chromatography and used to immunize rabbits. […] Inosine produced a 5.5-fold increase in the number of intensely stained cells over L-15, whereas AF-1 produced a 8-fold increase. In all 3 cases, the intensity of GAP-43 immunostaining correlated strongly with axonal length.

[4] = DCF alone, with AF-1, or with guanosine

Nc1ncnc2c1ncn2[C@@H]1O[C@H](CO)[C@@H](O)[C@H]1O [adenosine]
cell survival when ADA is blocked with DCF [1]: causes adenosine to suppress growth (e, top) and survival | outgrowth when adenosine hydrolysis is blocked ([2]; 100 μM adenosine in the presence of 10 μM DCF): suppress growth; also recorded: failed to stimulate growth, but caused it to decline below baseline levels | EC50 ([2]; Carassius auratus, 144 h): 10 to 15 µM | Emax ([2]; Carassius auratus, normalized to AF-1 positive control, adenosine 50-100 μM, guanosine 100 μM, inosine above 25 or 50 μM, read-out: maximal response relative to the level induced by AF-1): 60% | outgrowth at higher concentrations [2]: outgrowth decreased | axonal outgrowth activity [2]: stimulated almost as much outgrowth from goldfish retinal ganglion cells as AF-1

Nc1nc2c(ncn2[C@@H]2O[C@H](CO)[C@@H](O)[C@H]2O)c(=O)[nH]1 [guanosine]
GAP-43 levels relative to L-15 treated controls [3]: large increase in GAP-43 levels | EC50 ([2]; Carassius auratus, 144 h): 20 to 30 µM | outgrowth at higher concentrations [2]: no obvious decrease in activity | dependence of outgrowth on cell density ([2]; fixed concentration (100 μM), 3-4-fold range of cell densities): growth is not a function of cell density; also recorded: independent of cell density | EC50 [2]: 25 µM | maximal response relative to the level induced by AF-1 ([2]; normalized to AF-1 positive control, adenosine 50-100 μM, guanosine 100 μM, inosine above 25 or 50 μM): same maximal level of activity as adenosine | axonal outgrowth activity [2]: stimulated almost as much outgrowth from goldfish retinal ganglion cells as AF-1

CCCCCC[C@@H]([C@@H](C)O)n1cnc2c(N)ncnc21 (racemic) [EHNA, erythro-9-(2-hydroxy-3-nonyl) adenine]
cell survival [1]: not altering cell survival | effect on adenosine-stimulated outgrowth ([2]; 10 μM EHNA, 100 μM adenosine): rendered adenosine (100 μM) ineffective in stimulating outgrowth | reduction of growth stimulated by guanosine or AF-1 ([2]; EHNA 10 μM): about 50%

OC[C@H]1O[C@@H](n2cnc3c2NC=NC[C@H]3O)C[C@@H]1O [DCF, deoxycoformycin]
effects of DCF on survival [1, 4]: did not occur | effects of DCF on outgrowth [2, 4]: did not occur

B1: ADA: exogenous adenosine deaminase enzyme (protein, UniProt P00813 2-363, looked up)
Adenosine deaminase: AQTPAFDKPKVELHVHLDGSIKPETILYYGRRRGIALPANTAEGLLNVIGMDKPLTLPDFLAKFDYYMPAIAGCREAIKRIAYEFVEMKAKEGVVYVEVRYSPHLLANSKVEPIPWNQAEGDLTPDEVVALVGQGLQEGERDFGVKARSILCCMRHQPNWSPKVVELCKKYQQQTVVAIDLAGDETIPGSSLLPGHVQAYQEAVKSGIHRTVHAGEVGSAEVVKEAVDILKTERLGHGYHTLEDQALYNRLRQENMHFEICPWSSYLTGAWKPDTEHAVIRLKNDQANYSLNTDDPLIFKSTLDTDYQMTKRDMGFTEEEFKRLNINAAKSSFLPEDEKRELLDLLYKAYGMPPSASAGQNL
effect on cell survival ([1]; exogenous ADA 0.4 U/ml with 100 μM adenosine): did not diminish axon outgrowth stimulated by 100 μM adenosine or affect cell survival | effect on outgrowth stimulated by 100 μM adenosine ([2]; exogenous ADA 0.4 U/ml): unaltered; also recorded: did not diminish axon outgrowth
